{"source": "patent US20100249184A1", "about": "“INDUCTION AND/OR MAINTENANCE OF TUMOR DORMANCY BY DISRUPTION OF UROKINASE PLASMINOGEN ACTIVATOR RECEPTOR-INTEGRIN INTERACTION” (MOUNT SINAI SCHOOL OF MEDICINE, priority 2007, published 2010)", "key": {"[1]": {"test_system": "T-ELK:GFP cells", "experiment": "ERK activation reporter (GFP, FACS) in T-ELK:GFP cells", "type": "cell-based, human", "conditions": "38 hrs, untreated 7.4%", "text": "FIGS. 6A-E show ERK activation and growth in vivo. In FIG. 6A, HEK293 and D-Hep3 cells transfected with uPAR^wt produces stronger activation of ERK than cells transfected with uPAR^S245A or with vector (top and middle panels); HEK293, and D-HEp3 cells, transiently transfected with pcDNA3.1 vector, or with an expression construct for uPAR^wt or uPAR^S245A lysed 48 hrs later and analyzed by Western blotting for phospho-ERK (FIG. 6A, top panels) and ERK 1/2 (FIG. 6A, middle panels) with specific antibodies. The bands were scanned with NIH Image and plotted. The ratio of phospho-ERK to ERK was calculated and expressed as a fraction of the ratio of pcDNA3.1 transfected cells. In FIG. 6A (bottom panels), uPAR^wt and uPAR^S245A expression was determined by Western blotting. […] D-HEp3 cells transfected with vector, or uPAR^wt or uPAR^S245A were detached with EDTA 36 hrs after transfection and 7×10^5 cells in 30 μl PBS were inoculated onto chorioallantoic membranes (“CAMs”) of 10-day old chick embryos. Each sample was inoculated onto 4 CAMs. The CAMs were excised 4 days later and the number of tumor cells was determined as in the Examples. The bars show mean and standard deviation. Paired t-test vector/uPAR^S245A p=0.76, vector/uPAR^wt p=0.0005, uPAR^S245/uPAR^wt p=0.0002. Inset: uPAR expression detected by Western blot with R2 antibody. In FIG. 6C, peptide 240-248, but not peptide 17-24, down regulates P-ERK level. […] The cells were lysed and the lysates were analyzed for P-ERK (FIG. 6C, upper panel) and total ERK (FIG. 6C, lower panel) by Western blotting. […] The cells were processed as in FIG. 6C, except that the bands were scanned by NIH Image the P-ERK/ERK ratio was calculated. […] The cells were detached and analyzed for GFP in FACS Canto using FACSDiva software. […]\n[…] The cells were detached and analyzed for GFP by FACS analysis using FACS Canto (Becton Dickinson, Calif.) and FACSDiva software. […] Concentration dependence of P-ERK inhibition was analyzed by scanning P-ERK and ERK bands with NIH-Image and expressing their ratios as % of the ratio in untreated control (T-HEp3) cells. […]"}, "[2]": {"test_system": "HEK293 cells", "experiment": "Adhesion assay to fibronectin, transfected HEK293 cells", "type": "cell-based", "conditions": "HEK293-uPAR^wt cells; peptide 20 or 200 μM, 15 min", "procedure": "HEK293 cells transiently transfected with pcDNA3.1, or expression constructs for uPAR^wt or uPAR^S245A were detached 40 hrs after transfection and 1.5×10^5 cells were seeded on fibronectin (4 μg/ml in a 48-well plate) for 15 and 30 min at 37° C. Cell adhesion was quantified as described in the Examples. The results shown are mean (SD) of 2 individual experiments, 4 determinations for each cell type. Two additional experiments were performed with similar results. […] The cells were divided into 2 aliquots and one aliquot was incubated for 10 min with anti-uPAR(R^2) antibody (10 μg/ml). Cells (1.2×10^5) were seeded onto wells of a 48-well plate and the adhesion to fibronectin tested as in FIG. 4A. The results are mean (SD) of 6 determinations. […] Cells were seeded onto 96-well plates and adhesion to fibronectin tested as in FIG. 4A. The results are mean (SD) of 3 determinations for each peptide. The experiment was repeated twice.\nHEK293 cells were transiently transfected with pcDNA3.1, uPAR^wt, or uPAR^S245A. […] Following 15 and 30 min incubation at 37° C., the cells were washed twice with PBS with CaCl2 and MgCl2, fixed with 1% glutaraldehyde, stained with 1% crystal violet for 10 min, washed, dried, destained with 10% methanol and 5% acetic acid, and the OD of the extracted dye was measured in triplicate using the ELISA microplate-reader ELX800 from Bio-Tek Instruments. […]"}, "[3]": {"test_system": "T-HEp3 cells", "experiment": "Adhesion assay to fibronectin, T-HEp3 cells", "type": "cell-based, human", "conditions": "peptide 20 or 200 μM, 15 min"}}, "data": [{"substance": "peptide 17-24: synthetic uPAR-derived peptide, domain I amino acid 17-24: CALGQDLC (SEQ ID NO:5); negative control [reference compound]", "values": [{"measurement": "GFP-positive cells (% of total)", "setting": "[1]; 25 μM peptide", "result": 6.2, "unit": "%"}, {"measurement": "adhesion to fibronectin", "setting": "[2]", "result": "no effect"}, {"measurement": "adhesion to fibronectin", "setting": "[3]", "result": "no effect"}]}, {"substance": "peptide 240-248: synthetic uPAR-derived peptide, domain III residues 240-248: GCATASMCQ (SEQ ID NO:9)", "values": [{"measurement": "GFP-positive cells (% of total)", "setting": "[1]; 5 μM peptide", "result": 1.6, "unit": "%"}, {"measurement": "GFP-positive cells (% of total)", "setting": "[1]; 25 μM peptide", "result": 0.7, "unit": "%"}, {"measurement": "adhesion to fibronectin", "setting": "[2]", "result": "reduced adhesion to fibronectin"}, {"measurement": "adhesion to fibronectin", "setting": "[3]", "result": "reduced adhesion to fibronectin"}]}]}
